For this assay, the system named is Mycobacterium obuense type strain ATCC 27023. Description: Growth of Mycobacterium obuense on Middlebrook 7H11 medium with different Dapsone concentrations.

In patent publication US8512694B2, “Method of producing rough strains of bacteria and uses thereof” (priority 2005, dated 2013) one finds Observed growth data, which are given here for 1 molecule.

Entries after “also recorded” stand apart in the source; their conditions may differ.

Experimental: Mycobacterium obuense type strain ATCC 27023 was grown Middlebrook 7H11 medium comprising different concentrations of Dapsone™.

Consider `Nc1ccc(S(=O)(=O)c2ccc(N)cc2)cc1` [Dapsone ™, 4,4′-Diaminodiphenyl sulfone], for which the Observed growth (Experiment 2 part a, 5 μg Dapsone/ml Middlebrook 7H11 medium) is listed as 3 smooth colonies; the Observed growth result (Experiment 2 part a, 10 μg Dapsone/ml Middlebrook 7H11 medium) is reported as “no growth”; the Observed growth result (Experiment 2 part a, 20 μg Dapsone/ml Middlebrook 7H11 medium) is reported as “no growth”; the Observed growth result (Experiment 2 part a, 40 μg Dapsone/ml Middlebrook 7H11 medium) is recorded as “no growth”; the Observed growth entry (Experiment 2 part a, 50 μg Dapsone/ml Middlebrook 7H11 medium) was “no growth”; the Observed growth entry (Experiment 2 part b, 3 μg Dapsone/ml Middlebrook 7H11 medium) is on record as “confluent smooth colonies”. In addition, the Observed growth result (Experiment 2 part b, 4 μg Dapsone/ml Middlebrook 7H11 medium) is “small smooth colonies”; the Observed growth result (Experiment 2 part b, 5 μg Dapsone/ml Middlebrook 7H11 medium) was “small smooth colonies”; the Observed growth result (Experiment 2 part c, 5 μg Dapsone/ml Middlebrook 7H11 medium) is “few rough colonies,; also recorded: mostly smooth colonies”; the Observed growth entry (Experiment 2 part c, 7.5 μg Dapsone/ml Middlebrook 7H11 medium) is “few rough colonies,; also recorded: mostly smooth colonies”; the Observed growth result (Experiment 2 part c, 10 μg Dapsone/ml Middlebrook 7H11 medium) is recorded as “mostly rough colonies”; the Observed growth entry (Experiment 2 part c, 12 μg Dapsone/ml Middlebrook 7H11 medium) is “mostly rough colonies”.
